{"source": "DBAASP", "test_in_all_cases": "≥ marks a high value that may be exact or a test limit, other limits are often not marked, values filed in µg/mL are converted to µM", "key": {"[1]": {"system": "Staphylococcus aureus"}, "[2]": {"system": "Escherichia coli"}, "[3]": {"system": "Candida albicans"}, "[4]": {"system": "Enterococcus faecalis ATCC 29212"}, "[5]": {"system": "Escherichia coli ATCC 25922"}, "[6]": {"system": "Staphylococcus aureus ATCC 29213"}, "[7]": {"system": "Bacillus subtilis"}, "[8]": {"system": "Pseudomonas aeruginosa ATCC 27853"}, "[9]": {"system": "Staphylococcus epidermidis ATCC 12228"}}, "note": "Where “and” joins values, the source holds several entries; their conditions need not be identical. Equal entries are not always repeated."}
{"smiles": "CC[C@H](C)[C@H](NC(=O)CNC(=O)[C@H](CCCCN)NC(=O)[C@@H](NC(=O)[C@H](CC(C)C)NC(=O)[C@H](CO)NC(=O)CNC(=O)[C@H](CC(C)C)NC(=O)[C@H](CC(=O)O)NC(=O)[C@H](C)NC(=O)[C@H](CCCCN)NC(=O)[C@H](CC(C)C)NC(=O)[C@@H](NC(=O)[C@H](CCC(=O)O)NC(=O)[C@H](CCCCN)NC(=O)[C@H](Cc1ccccc1)NC(=O)CN)C(C)C)C(C)C)C(=O)N[C@@H](C)C(=O)N[C@@H](C)C(=O)N[C@@H](Cc1cnc[nH]1)C(=O)N[C@H](C(=O)N[C@@H](C)C(=O)N[C@@H](CC(N)=O)C(N)=O)C(C)C", "note": "[GFKEVLKADLGSLVKGIAAHVAN]", "values": [{"measurement": "MIC", "setting": "[1]", "value": 214, "unit": "µM"}, {"measurement": "MIC", "setting": "[2]", "value": 214, "unit": "µM"}, {"measurement": "MIC", "setting": "[3]", "value": "> 400", "unit": "µM"}]}
{"smiles": "CC[C@H](C)[C@H](NC(=O)[C@H](CCCCN)NC(=O)[C@H](CCCCN)NC(=O)[C@@H](NC(=O)[C@@H](NC(=O)[C@H](CCCCN)NC(=O)[C@H](Cc1ccccc1)NC(=O)[C@H](CC(C)C)NC(=O)CN)[C@@H](C)CC)[C@@H](C)CC)C(=O)N[C@@H](Cc1c[nH]c2ccccc12)C(=O)N[C@@H](CCCCN)C(=O)N[C@@H](CO)C(=O)N[C@@H](Cc1ccccc1)C(N)=O", "note": "[GLFKIIKKIWKSF]", "values": [{"measurement": "MIC", "setting": "[4]", "value": "15.5 µM and 31.1 µM"}, {"measurement": "MIC", "setting": "[5]", "value": "3.89 µM and 7.77 µM"}, {"measurement": "MIC", "setting": "[6]", "value": "1.94 µM and 3.89 µM"}]}
{"smiles": "CC[C@H](C)[C@H](NC(=O)[C@H](CC(C)C)NC(=O)[C@H](C)NC(=O)[C@@H]1CCCN1C(=O)[C@H](CC(C)C)NC(=O)CN)C(=O)N[C@@H](CO)C(=O)N[C@@H](CO)C(=O)N[C@H](C(=O)N[C@@H](CCCCN)C(=O)N[C@@H](CCCN=C(N)N)C(=O)N[C@@H](CCCCN)C(=O)N[C@@H](CCCN=C(N)N)C(=O)N[C@@H](CCC(N)=O)C(=O)N[C@@H](CCC(N)=O)C(N)=O)[C@@H](C)CC", "note": "[GLPALISSIKRKRQQ]", "values": [{"measurement": "MIC", "setting": "[7]", "value": "≥ 45.1", "unit": "µM"}, {"measurement": "MIC", "setting": "[1]", "value": 22.5, "unit": "µM"}, {"measurement": "MIC", "setting": "[2]", "value": "> 180", "unit": "µM"}]}
{"smiles": "CC[C@H](C)[C@H](NC(=O)[C@H](CC(C)C)NC(=O)[C@H](C)NC(=O)[C@@H]1CCCN1C(=O)[C@H](CC(C)C)NC(=O)CN)C(=O)N[C@@H](CO)C(=O)N[C@@H](Cc1c[nH]c2ccccc12)C(=O)N[C@H](C(=O)N[C@@H](CCCCN)C(=O)N[C@@H](CCCN=C(N)N)C(=O)N[C@@H](CCCCN)C(=O)N[C@@H](CCCN=C(N)N)C(=O)NCC(=O)NCC(N)=O)[C@@H](C)CC", "note": "[GLPALISWIKRKRGG]", "values": [{"measurement": "MIC", "setting": "[7]", "value": 1.48, "unit": "µM"}, {"measurement": "MIC", "setting": "[1]", "value": 1.57, "unit": "µM"}, {"measurement": "MIC", "setting": "[2]", "value": 47.4, "unit": "µM"}]}
{"smiles": "CC[C@H](C)[C@H](NC(=O)[C@H](Cc1c[nH]c2ccccc12)NC(=O)CNC(=O)[C@H](CCCCN)NC(=O)CNC(=O)[C@H](Cc1ccccc1)NC(=O)[C@H](Cc1cnc[nH]1)NC(=O)[C@H](C)NC(=O)[C@H](C)NC(=O)[C@H](C)NC(=O)[C@H](CCCCN)NC(=O)CNC(=O)[C@H](Cc1ccccc1)NC(=O)[C@H](CCCCN)NC(=O)[C@H](C)NC(=O)[C@@H](NC(=O)CN)C(C)C)C(=O)N[C@@H](CCCCN)C(=O)N[C@@H](CCC(=O)O)C(=O)N[C@@H](CCSC)C(=O)N[C@@H](CC(C)C)C(=O)N[C@@H](CC(N)=O)C(=O)N[C@@H](CO)C(N)=O", "note": "[GVAKFGKAAAHFGKGWIKEMLNS]", "values": [{"measurement": "MIC", "setting": "[8]", "value": "> 76", "unit": "µM"}, {"measurement": "MIC", "setting": "[5]", "value": "> 76", "unit": "µM"}, {"measurement": "MIC", "setting": "[6]", "value": "> 76", "unit": "µM"}]}
{"smiles": "CC[C@H](C)[C@H](NC(=O)[C@H](CO)NC(=O)[C@H](C)NC(=O)[C@@H](NC(=O)[C@H](CCCCN)NC(=O)[C@H](CCCCN)NC(=O)[C@H](Cc1c[nH]c2ccccc12)NC(=O)[C@H](CC(N)=O)NC(=O)[C@@H](N)CCCCN)[C@@H](C)CC)C(=O)NCC(=O)N[C@@H](CCCCN)C(=O)N[C@@H](CCC(=O)O)C(=O)N[C@H](C(=O)N[C@@H](CC(C)C)C(=O)N[C@@H](CCCCN)C(=O)N[C@@H](C)C(=O)N[C@@H](CC(C)C)C(N)=O)C(C)C", "note": "[KNWKKIASIGKEVLKAL]", "values": [{"measurement": "MIC", "setting": "[7]", "value": "≥ 60", "unit": "µM"}, {"measurement": "MIC", "setting": "[2]", "value": 12.5, "unit": "µM"}]}
{"smiles": "CC(=O)N[C@@H](CCCCN)C(=O)N[C@@H](Cc1ccc(O)cc1)C(=O)N[C@H](C(=O)NCC(=O)N[C@@H](CCCCN)C(=O)N[C@@H](CS)C(=O)N[C@H](C(=O)N[C@@H](CCCCN)C(=O)N[C@@H](CO)C(=O)N[C@@H](CCCCN)C(=O)N[C@@H](CC(N)=O)C(=O)N[C@@H](CCC(=O)O)C(=O)N[C@@H](CS)C(=O)N[C@@H](CCCCN)C(N)=O)[C@@H](C)O)[C@@H](C)O", "note": "[KYTGKCTKSKNECK]", "values": [{"measurement": "MIC", "setting": "[3]", "value": 10, "unit": "µM"}]}
{"smiles": "CC(=O)N[C@@H](CC(C)C)C(=O)N[C@@H](CCCCN)C(=O)N[C@@H](CCCCN)C(=O)N[C@@H](CC(C)C)C(=O)N[C@@H](CC(C)C)C(=O)N[C@@H](CCCCN)C(=O)N[C@@H](CC(C)C)C(=O)N[C@@H](CC(C)C)C(=O)N[C@@H](CCCCN)C(=O)N[C@@H](CCCCN)C(=O)N[C@@H](CC(C)C)C(=O)N[C@@H](CC(C)C)C(=O)N[C@@H](CCCCN)C(=O)N[C@@H](CC(C)C)C(=O)N[C@@H](C)C(=O)NCC(N)=O", "note": "[LKKLLKLLKKLLKLAG]", "values": [{"measurement": "MIC", "setting": "[5]", "value": 20, "unit": "µM"}, {"measurement": "MIC", "setting": "[6]", "value": 20, "unit": "µM"}]}
{"smiles": "CC(=O)N[C@@H](CC(C)C)C(=O)N[C@@H](CCCCN)C(=O)N[C@@H](CCCCN)C(=O)N[C@@H](CC(C)C)C(=O)N[C@@H](CC(C)C)C(=O)N[C@@H](CCCCN)C(=O)N1CCC[C@H]1C(=O)N[C@@H](CC(C)C)C(=O)N[C@@H](CCCCN)C(=O)N[C@@H](CCCCN)C(=O)N[C@@H](CC(C)C)C(=O)N[C@@H](CC(C)C)C(=O)N[C@@H](CCCCN)C(=O)N[C@@H](CC(C)C)C(N)=O", "note": "[LKKLLKPLKKLLKL]", "values": [{"measurement": "MIC", "setting": "[5]", "value": 20, "unit": "µM"}, {"measurement": "MIC", "setting": "[6]", "value": 20, "unit": "µM"}]}
{"smiles": "CC(=O)N[C@@H](CC(C)C)C(=O)N[C@@H](CCCCN)C(=O)N[C@@H](CCCCN)C(=O)N[C@@H](CC(C)C)C(=O)N[C@@H](CC(C)C)C(=O)N1CCC[C@H]1C(=O)N[C@@H](CC(C)C)C(=O)N[C@@H](CC(C)C)C(=O)N[C@@H](CCCCN)C(=O)N[C@@H](CCCCN)C(=O)N[C@@H](CC(C)C)C(=O)N[C@@H](CC(C)C)C(=O)N[C@@H](CCCCN)C(=O)N[C@@H](CC(C)C)C(N)=O", "note": "[LKKLLPLLKKLLKL]", "values": [{"measurement": "MIC", "setting": "[5]", "value": 10, "unit": "µM"}, {"measurement": "MIC", "setting": "[6]", "value": 2.5, "unit": "µM"}]}
{"smiles": "CC(C)[C@H](NC(=O)[C@H](Cc1c[nH]c2ccccc12)NC(=O)[C@H](CCCN=C(N)N)NC(=O)[C@@H](N)CCCN=C(N)N)C(=O)N[C@@H](C)C(=O)N[C@@H](Cc1c[nH]c2ccccc12)C(=O)N[C@@H](CCCN=C(N)N)C(=O)N[C@@H](CC(N)=O)C(=O)N[C@@H](CCCN=C(N)N)C(=O)O", "note": "[RRWVAWRNR]", "values": [{"measurement": "MIC", "setting": "[5]", "value": 96, "unit": "µM"}, {"measurement": "MIC", "setting": "[6]", "value": 96, "unit": "µM"}]}
{"smiles": "CC[C@H](C)[C@H](NC(=O)CNC(=O)[C@H](CC(C)C)NC(=O)[C@@H](NC(=O)[C@H](Cc1ccc(O)cc1)NC(=O)[C@@H](NC(=O)[C@H](CO)NC(=O)[C@@H](NC(=O)[C@@H]1CCCN1C(=O)[C@@H](NC(=O)[C@@H](N)CO)C(C)C)[C@@H](C)O)C(C)C)[C@@H](C)O)C(=O)N[C@@H](CCCCN)C(=O)N[C@H](C(=O)N[C@@H](CC(C)C)C(=O)N[C@@H](Cc1c[nH]c2ccccc12)C(=O)N[C@@H](CO)C(=O)N[C@@H](C)C(=O)N[C@@H](Cc1ccc(O)cc1)C(=O)N[C@@H](CCCCN)C(=O)N[C@@H](Cc1cnc[nH]1)C(=O)N[C@@H](CCCN=C(N)N)C(=O)N[C@@H](CCCCN)C(=O)N[C@H](C(=O)N[C@H](C(=O)N[C@@H](CCC(=O)O)C(=O)N[C@@H](CCCCN)C(=O)N[C@@H](CO)C(=O)N[C@@H](Cc1ccccc1)C(=O)N[C@@H](CC(N)=O)C(=O)N[C@@H](CCCCN)C(=O)NCC(=O)N[C@@H](Cc1ccccc1)C(=O)N[C@@H](Cc1ccc(O)cc1)C(=O)N[C@@H](Cc1cnc[nH]1)C(=O)O)[C@@H](C)CC)[C@@H](C)O)[C@@H](C)CC", "note": "[SVPTSVYTLGIKILWSAYKHRKTIEKSFNKGFYH]", "values": [{"measurement": "MIC", "setting": "[9]", "value": 50, "unit": "µM"}]}
